Experimental data reported in patent publication US20020183309A1, “Novel amines as histamine-3 receptor ligands and their therapeutic applications” (priority 2001, published 2002).

molecular target: T1, histamine-3 receptors (H3 receptor) (Rattus norvegicus, UniProt Q9QYN8); experiment: (3H)-N-α-methylhistamine binding to rat cortical membranes; details: not given
T1 construct: from tissue; host or cells: male Sprague-Dawley rat brain cortex membranes
Description: Briefly, male Sprague-Dawley rat brain cortices were homogenized (1 g tissue/10 mL buffer) in 50 mM Tris-HCl/5 mM EDTA containing protease inhibitor cocktail (Calbiochem) using a polytron set at 20,500 rpm. Homogenates were centrifuged for 20 minutes at 40,000×g. The supernatant was decanted, and pellets were weighed. The pellet was resuspended by polytron homogenization in 40 mL 50 mM Tris-HCl/5 mM EDTA with protease inhibitors and centrifuged for 20 minutes at 40,000×g. […] Rat cortical membranes (12 mg wet weight/tube) were incubated with (^3H)-N-α-methylhistamine (˜0.6 nM) with or without H3 receptor antagonists in a total incubation volume of 0.5 mL of 50 mM Tris-HCl/5 mM EDTA (pH 7.7). Test compounds were dissolved in DMSO to provide a 20 mM solution, serially diluted and then added to the incubation mixtures prior to initiating the incubation assay by addition of the membranes. Thioperamide (3 μM) was used to determine nonspecific binding. Binding incubations were conducted for 30 minutes at 25° C. and terminated by addition of 2 mL of ice cold 50 mM Tris-HCl (pH 7.7) and filtration through 0.3% polyethylenimine-soaked Unifilter plates (Packard). These filters were washed 4 additional times with 2 mL of ice-cold 50 mM Tris-HCl and dried for 1 hour. Radioactivity was determined using liquid scintillation counting techniques. Results were analyzed by Hill transformation and Ki values were determined using the Cheng-Prusoff equation.

T1 sequence (Q9QYN8 whole entry): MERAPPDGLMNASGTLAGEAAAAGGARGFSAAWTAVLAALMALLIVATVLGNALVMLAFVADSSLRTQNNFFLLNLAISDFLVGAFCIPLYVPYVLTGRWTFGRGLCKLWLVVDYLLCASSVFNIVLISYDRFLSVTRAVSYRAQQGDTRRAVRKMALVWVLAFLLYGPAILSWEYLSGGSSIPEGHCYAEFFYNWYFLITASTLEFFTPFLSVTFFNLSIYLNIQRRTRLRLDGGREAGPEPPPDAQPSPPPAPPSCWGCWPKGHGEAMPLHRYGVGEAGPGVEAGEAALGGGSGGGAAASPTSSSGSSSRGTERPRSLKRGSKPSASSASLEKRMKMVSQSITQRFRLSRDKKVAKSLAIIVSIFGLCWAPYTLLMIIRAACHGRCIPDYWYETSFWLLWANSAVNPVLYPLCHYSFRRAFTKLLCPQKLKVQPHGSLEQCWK

Compound | Ki [µM]
CN(C)[C@H]1CCN(CCc2cc3cc(-c4ccc(C#N)cc4)ccc3o2)C1 [Example 9, 4-(2-{2-[(3S)-3-(dimethylamino)pyrrolidinyl]ethyl}-1-benzofuran-5-yl)benzonitrile] | 0.136

same assay, conditions: male Sprague-Dawley rat brain cortical membranes; (3H)-N-α-methylhistamine ~0.6 nM; 30 minutes at 25° C.; Cheng-Prusoff equation; read-out: Ki

Compound | Ki [µM]
CCN(CC)CCc1cc2cc(-c3ccc(C#N)cc3)ccc2o1 [Example 5, 4-{2-[2-(diethylamino)ethyl]-1-benzofuran-5-yl}benzonitrile] | 0.0494
C[C@@H]1CC[C@@H](C)N1CCc1cc2cc(-c3ccc(C#N)cc3)ccc2o1 [Example 12, 4-(2-{2-[(2R,5R)-2,5-dimethylpyrrolidinyl]ethyl}-1-benzofuran-5-yl)benzonitrile] | 0.0384
COC(=O)[C@@H]1CCCN1CCc1cc2cc(-c3ccc(C#N)cc3)ccc2o1 [Example 15, 4-(2-{2-[2-pyrrolidinemethyl carboxylate]ethyl}-1-benzofuran-5-yl)benzonitrile] | 1
N#Cc1ccc(-c2ccc3oc(CCN4CC=CCC4)cc3c2)cc1 [Example 16, 4-{2-[2-(3,6-dihydro-1(2H)-pyridinyl)ethyl]-1-benzofuran-5-yl}benzonitrile] | 0.0922
CN(CCc1cc2cc(-c3ccc(C#N)cc3)ccc2o1)C(C)(C)C [Example 18, 4-(2-{2-[tert-butyl (methyl)amino]ethyl}-1-benzofuran-5-yl)benzonitrile] | 0.0605
CC(C)CN(C)CCc1cc2cc(-c3ccc(C#N)cc3)ccc2o1 [Example 20, 4-(2-{2-[isobutyl(methyl)amino]ethyl}-1-benzofuran-5-yl)benzonitrile] | 0.18
CCCN(CC)CCc1cc2cc(-c3ccc(C#N)cc3)ccc2o1 [Example 22, 4-(2-{2-[ethyl(propyl)amino]ethyl}-1-benzofuran-5-yl)benzonitrile] | 0.0692
CC1CCCN1CCc1cc2cc(-c3ccc(C(=O)N4CCOCC4)cc3)ccc2o1 (stereo not drawn) [Example 23, 4-(4-{2-[2-(2-methyl-1-pyrrolidinyl)ethyl]-1-benzofuran-5-yl}benzoyl)morpholine] | 0.00197
O=C(c1ccc(-c2ccc3oc(CCN4CCCCC4)cc3c2)cc1)N1CCOCC1 [Example 24, 4-(4-{2-[2-(1-piperidinyl)ethyl]-1-benzofuran-5-yl}benzoyl)morpholine] | 0.0117
CCN(CC)CCc1cc2cc(-c3ccc(C(=O)N4CCOCC4)cc3)ccc2o1 [Example 25, N,N-diethyl-N-(2-{5-[4-(4-morpholinylcarbonyl)phenyl]-1-benzofuran-2-yl}ethyl)amine] | 0.0144

Further lines, results first:

Ki [µM] | Compound
0.0949 | N#Cc1ccc(-c2ccc3oc(CCN4CC[C@@H](O)C4)cc3c2)cc1 [Example 7, 4-(2-{2-[(3R)-3-hydroxypyrrolidinyl]ethyl}-1-benzofuran-5-yl)benzonitrile]
0.0777 | CC(C)N(C)CCc1cc2cc(-c3ccc(C#N)cc3)ccc2o1 [Example 19, 4-(2-{2-[isopropyl(methyl)amino]ethyl}-1-benzofuran-5-yl)benzonitrile]
0.0444 | CCN(CCc1cc2cc(-c3ccc(C#N)cc3)ccc2o1)C(C)C [Example 21, 4-(2-{2-[ethyl(isopropyl)amino]ethyl}-1-benzofuran-5-yl)benzonitrile]
0.0272 | CC1CCCCN1CCc1cc2cc(-c3ccc(C(=O)N4CCOCC4)cc3)ccc2o1 (stereo not drawn) [Example 26, 4-(4-{2-[2-(2-methyl1--piperidinyl)ethyl]-1-benzofuran-5-yl}benzoyl)morpholine]
0.0251 | CC1CCN(CCc2cc3cc(-c4ccc(C#N)cc4)ccc3o2)CC1 [Example 14, 4-{2-[2-(4-methyl-1-piperidinyl)ethyl]-1-benzofuran-5-yl}benzonitrile]
0.0193 | 4-(2-{2-[(2R,6S)-2,6-dimethylpiperidinyl]ethyl}-1-benzofuran-5-yl)benzonitrile [Example 11]
0.00846 | 4-[4-(2-{2-[(2R,6S)-2,6-dimethylpiperidinyl]ethyl}-1-benzofuran-5-yl)benzoyl]morpholine [Example 29]
